In US12357570B2, “Chemoembolization agents” (BRUIN BIOSCIENCES, INC., priority 2017, dated 2025):
“Also recorded” adds a separate entry of the source.

Tests used:
[1] = after a 24 hour period; previous observations; cited from earlier work
[2] = Loading of non-encapsulated drug on DC Beads (residual unloaded drug by HPLC); type: physicochemical; conditions: room temperature
Experimental: A drug-loading solution was prepared by adding sterile water to a vial of doxorubicin hydrochloride powder (Pharmacia & Upjohn, Kalamazoo, MI) to produce a solution of the desired concentration (for the loading experiment 25 mg Doxorubicin salt was dissolved in 5 mL water. 0.043 mmol/5 mL=8.6 mM solution). 1 mL volume of beads was aspirated via syringe, purged of as much liquid as possible, then an aqueous solution Doxorubicin (5 mL, 5 mg/mL concentration) aspirated and mixed with beads. The mixture was dispensed into a sealed vial and left to load at room temperature without agitation and left for a time until the red coloration in the solution had diminished and the beads had taken on a red color. This time was dependent on drug loading solution concentration and bead size.
The extent of drug loading was calculated from the residual unloaded drug content determined by UV/visible HPLC with DAD detector at 220 and 254 nm (Agilent 1100 Series). Estimated uptake of Doxorubicin was approximately 90% loading after 25 hours, and approximately 99% loading after 91 hours.
Sunitinib was loaded to DC Beads® using a procedure similar to that for Example 6. Estimated uptake of Sunitinib was approximately 99% after 6 hours and >99.8% after 24 hours at room temperature.

[3] = cited from earlier work
[4] = Loading of liposome-encapsulated drug on DC Beads (supernatant HPLC/MS); type: physicochemical; conditions: for loading on DC Beads: cationic liposomes DOTAP/DOPC; for amount loaded: start of elution, liposomal drug on DC Beads
Experimental: (§1) This was accomplished via a two-step process: 1) Sorafenib was made water-soluble by encapsulation into an encapsulating agent that is positively charged on its outer surface (cationic liposomes) and 2) association of a plurality of the loaded encapsulating agents so obtained onto microspheres (DC Beads®). In order to accomplish this, Sorafenib para-toluene sulfonate salt (9.1 mg), DOTAP (1,2-dioleoyl-3-trimethylammonium-propane chloride salt, 100 mg) and DOPC (1,2-dioleoyl-sn-glycero-3-phosphocholine, 101.1 mg) were dissolved in ethanol (0.5 mL) and this solution was added dropwise to a 10% trehalose solution (9 mL) under stirring. The resulting viscous emulsion was stirred at room temperature for 5 minutes and then filtered through a manual liposomal extruder using a 200 nm polycarbonate membrane. The resulting unilamellar liposomal solution was lyophilized overnight to yield a white solid, which was reconstituted in deionized water (1.82 mL) to yield a final Sorafenib concentration of 5 mg/mL. DC Beads® (2 mL, having about 200,000 beads with an average bead diameter of about 100-300 microns as measured by light scattering) were drained of as much liquid as possible and treated with the liposomal solution. The concentration of Sorafenib in the supernatant was measured over time by HPLC/MS. After approximately 46 hours, equilibrium was reached and loading of Sorafenib appeared to be approximately 52%. It is possible that saturation was reached and that more beads are needed to increase loading. For elution experiments, the liposomal solution with the DC Beads® was passed through a cotton filter, leaving the DC Beads® on the filter. PBS (1.0 M, pH 7.4) warmed to 37° C. was passed over the beads at 4 mL/min for 60 minutes. Four 40 mL vials were collected and analyzed by HPLC/MS/MS to determine the concentration of Sorafenib in each sample. Ten 3 mL vials were collected and analyzed by HPLC/MS/MS to establish the drug elution kinetics for Sorafenib.
This was accomplished via a two-step process: 1) Regorafenib (4.7229 mg) was made water-soluble by encapsulation into an encapsulating agent that is positively charged on its outer surface (cationic liposomes) and 2) association of a plurality of the loaded encapsulating agents so obtained onto microspheres. In short, Regorafenib (6.9 mg), DOTAP (1,2-dioleoyl-3-trimethylammonium-propane chloride salt, 100 mg) and DOPC (1,2-dioleoyl-sn-glycero-3-phosphocholine, 101.1 mg) were dissolved in ethanol (0.5 mL) and this solution was added dropwise to a 10% trehalose solution (9 mL) under stirring. […] The concentration of Regorafenib in the supernatant was measured over time by HPLC/MS. […] Four 40 mL vials were collected and analyzed by HPLC/MS/MS to determine the concentration of […] in each sample.

[5] = Elution of liposome-encapsulated drug from DC Beads with PBS pH 7.4 at 37° C.; type: physicochemical; conditions: for Remaining drug to be eluted: after Fraction I (solvent-final)
Experimental: as §1, with “PBS (1.0 M, pH 7.4) warmed to 37° C. was passed over the beads at 4 mL/min for 60 minutes.” left out
This was accomplished via a two-step process: 1) Regorafenib (4.7229 mg) was made water-soluble by encapsulation into an encapsulating agent that is positively charged on its outer surface (cationic liposomes) and 2) association of a plurality of the loaded encapsulating agents so obtained onto microspheres. In short, Regorafenib (6.9 mg), DOTAP (1,2-dioleoyl-3-trimethylammonium-propane chloride salt, 100 mg) and DOPC (1,2-dioleoyl-sn-glycero-3-phosphocholine, 101.1 mg) were dissolved in ethanol (0.5 mL) and this solution was added dropwise to a 10% trehalose solution (9 mL) under stirring. The resulting viscous emulsion was stirred at room temperature for 5 minutes and then filtered through a manual liposomal extruder using a 200 nm polycarbonate membrane. The resulting unilamellar liposomal solution was lyophilized overnight to yield a white solid, which was reconstituted in deionized water (1.8 mL) to yield a final Regorafenib concentration of 5 mg/mL. DC Beads® (2 mL) were drained of as much liquid as possible and treated with the liposomal solution. The concentration of Regorafenib in the supernatant was measured over time by HPLC/MS. After approximately 92 hours, equilibrium was reached and loading of Regorafenib appeared to be approximately 25%. For elution experiments, the liposomal solution with the DC Beads® was passed through a cotton filter, leaving the DC Beads® on the filter. […] Four 40 mL vials were collected and analyzed by HPLC/MS/MS to determine the concentration of […] in each sample.

[6] = human, 400 mg twice daily, cited from earlier work
[7] = Fraction I (solvent-final), time 320 minutes

Row | amount loaded [4] [mg] | % eluted ([5]; Fraction B, time 40 minutes) [%] | Cumulative elution % ([5]; Fraction B, time 40 minutes) [%] | amount eluted ([5]; Fraction B, time 40 minutes) [mg] | % eluted ([5]; Fraction C, time 80 minutes) [%] | Cumulative elution % ([5]; Fraction C, time 80 minutes) [%] | amount eluted ([5]; Fraction C, time 80 minutes) [mg] | % eluted ([5]; Fraction D, time 120 minutes) [%] | Cumulative elution % ([5]; Fraction D, time 120 minutes) [%] | amount eluted ([5]; Fraction D, time 120 minutes) [mg] | % eluted ([5]; Fraction E, time 160 minutes) [%] | Cumulative elution % ([5]; Fraction E, time 160 minutes) [%] | amount eluted ([5]; Fraction E, time 160 minutes) [mg] | % eluted ([5]; Fraction F, time 200 minutes) [%] | Cumulative elution % ([5]; Fraction F, time 200 minutes) [%] | amount eluted ([5]; Fraction F, time 200 minutes) [mg] | % eluted ([5]; Fraction G, time 240 minutes) [%] | Cumulative elution % ([5]; Fraction G, time 240 minutes) [%] | amount eluted ([5]; Fraction G, time 240 minutes) [mg] | SMILES | water solubility [3] | other results
1 |  |  |  |  |  |  |  |  |  |  |  |  |  |  |  |  |  |  |  | COc1cccc2c1C(=O)c1c(O)c3c(c(O)c1C2=O)C[C@@](O)(C(=O)CO)C[C@@H]3O[C@H]1C[C@H](N)[C@H](O)[C@H](C)O1 [Doxorubicin] |  | fraction of drug eluted [1]: about 4%; Estimated uptake (loading) on DC Beads ([2]; after 25 hours): approximately 90%; Estimated uptake (loading) on DC Beads ([2]; after 91 hours): approximately 99%
2 | 2.1931 | 68.3963 | 68.3963 | 1.5 | 2.3255 | 70.7218 | 0.051 | 0.0109 | 70.7327 | 0.00024 | 0.00286 | 70.7356 | 0.0000628 | 0.0017 | 70.7373 | 0.0000372 | 0.0017 | 70.739 | 0.0000364 | CNC(=O)c1cc(Oc2ccc(NC(=O)Nc3ccc(Cl)c(C(F)(F)F)c3)c(F)c2)ccn1 [Regorafenib] | poor | loading on DC Beads ([4]; equilibrium after approximately 92 hours): approximately 25%; % eluted ([5]; Fraction H, time 280 minutes): 0.0049%; Cumulative elution % ([5]; Fraction H, time 280 minutes): 70.7439%; amount eluted ([5]; Fraction H, time 280 minutes): 0.000108 mg; % eluted [5, 7]: 3.5384%; Cumulative elution % [5, 7]: 74.2823%; amount eluted [5, 7]: 0.0776 mg; Remaining drug to be eluted [5]: 0.5723 mg
3 | 4.7229 | 65.4259 | 65.4259 | 3.09 | 10.6714 | 76.0973 | 0.504 | 0.6479 | 76.7452 | 0.0306 | 0.6924 | 77.4376 | 0.0327 | 0.1912 | 77.6287 | 0.00903 | 0.1188 | 77.7475 | 0.00561 | CNC(=O)c1cc(Oc2ccc(NC(=O)Nc3ccc(Cl)c(C(F)(F)F)c3)cc2)ccn1 [Sorafenib, 4-{4-[3-(4-chloro-3-trifluoro-phenyl)-ureido]-phenoxyl}-pyridine-2-carboxylic methylamine] | mostly insoluble; also recorded: very poor | solubility in alcohol ([3]; alcohol): slightly soluble; solubility in polyethylene glycol 400 ([3]; polyethylene glycol 400): fully soluble; loading on DC Beads ([4]; equilibrium after approximately 46 hours): approximately 52%; mean t½ [6]: 27.4 h; Cmax ([6]; read-out: Cmax in plasma): ~11.6 µM; % eluted ([5]; Fraction H, time 280 minutes): 0.00648%; Cumulative elution % ([5]; Fraction H, time 280 minutes): 77.754%; amount eluted ([5]; Fraction H, time 280 minutes): 0.000306 mg; % eluted [5, 7]: 4.9292%; Cumulative elution % [5, 7]: 82.68%; amount eluted [5, 7]: 0.2328 mg; Remaining drug to be eluted [5]: 0.8179 mg; concentration released in smaller increments thereafter ([5]; after initial release): 0.2 µM; drug remained on the beads ([5]; after the last elution time point): Approximately 17%; concentration released initially ([5]; initial release from beads): 4 to 20 µM; fraction of loaded drug eluted ([5]; over 40 minutes): approximately 2%
